The record followed here is ChEMBL document CHEMBL3751774, “Synthesis and anti-tubercular activity of conformationally-constrained and bisquinoline analogs of TMC207” (Medchemcomm, 2015).

The test system of test [1] is Mycobacterium tuberculosis. The test is described as follows: Antitubercular activity against Mycobacterium tuberculosis H37Rv assessed as growth inhibition by BACTEC assay. In kind it is functional.
Test [2] deals with Mycobacterium tuberculosis. The test is described as follows: Antitubercular activity against Mycobacterium tuberculosis H37Rv assessed as growth inhibition after 4 weeks. Conditions: 672 h. Format: functional.
For the next test, the target named is ATP synthase. The test can be described thus: Inhibition of Mycobacterium tuberculosis ATP synthase. In kind it is protein-complex assay.
Test [3] can be described thus: Cytotoxicity against African green monkey Vero C1008 cells assessed as reduction in cell viability after 24 hrs by MTS assay. In kind it is cell-based. As to conditions: Chlorocebus sabaeus.
Test [4] can be described thus: Cytotoxicity against Swiss mouse BMDM assessed as reduction in cell viability after 24 hrs by MTS assay. On the technique in general: Formazan colour is commonly taken as a measure of viable cells.
In test [5] the test system is Mycobacterium tuberculosis. The test can be described thus: Antitubercular activity against Mycobacterium tuberculosis H37Rv infected in mouse BMDM assessed as reduction in colony forming units at 4 times MIC incubated for 4 days measured after 4 weeks relative to control. On the set-up: scale not given: the % may be the effect or the level left. In kind it is functional.

The subject of test [6] is Mycobacterium tuberculosis. The test can be described thus: Antitubercular activity against Mycobacterium tuberculosis H37Rv infected in Swiss mouse assessed as reduction in colony forming units in lungs at 25 mg/kg, po for 28 days measured after 3 to 4 weeks relative to control. In kind it is functional.
Test [7] relates to Mycobacterium tuberculosis. The test can be described thus: Antitubercular activity against Mycobacterium tuberculosis H37Rv infected in Swiss mouse assessed as mean survival time at 25 mg/kg, po for 28 days (reference value: 27.8 days). In kind it is functional.
Test [8] relates to Mycobacterium tuberculosis. The test is described as follows: Antitubercular activity against Mycobacterium tuberculosis H37Rv infected in human blood monocyte derived macrophages assessed as reduction in colony forming units at 4 times MIC incubated for 4 days measured after 4 weeks. In kind it is functional, organism-based.
Test [9] has as its system Mycobacterium tuberculosis. The test is described as follows: Antitubercular activity against Mycobacterium tuberculosis H37Rv infected in Swiss mouse assessed as reduction in colony forming units in lungs at 50 mg/kg, po 6 days/week for 28 days measured after 3 to 4 weeks relative to control. In kind it is functional.
The subject of test [10] is Mycobacterium tuberculosis. The test is described as follows: Antitubercular activity against Mycobacterium tuberculosis H37Rv infected in Swiss mouse assessed as reduction in colony forming units in lungs at 100 mg/kg, po 6 days/week for 28 days measured after 3 to 4 weeks relative to control. Format: functional.
The subject of test [11] is Mycobacterium tuberculosis. The test is described as follows: Antitubercular activity against Mycobacterium tuberculosis H37Rv infected in Swiss mouse assessed as mean survival time at 50 mg/kg, po 6 days/week for 28 days (reference value: 27.8 days). In kind it is functional.
For test [12], the system named is Mycobacterium tuberculosis. The test is described as follows: Antitubercular activity against Mycobacterium tuberculosis H37Rv infected in Swiss mouse assessed as mean survival time at 100 mg/kg, po 6 days/week for 28 days (reference value: 27.8 days). In kind it is functional.
The test system of test [13] is Mycobacterium tuberculosis. The test is described as follows: Antitubercular activity against Mycobacterium tuberculosis H37Rv infected in Swiss mouse assessed as reduction in colony forming units in lungs at 100 mg/kg, po for 28 days measured after 3 to 4 weeks relative to control. In kind it is functional.
Test [14] concerns Mycobacterium tuberculosis. The test is described as follows: Antitubercular activity against Mycobacterium tuberculosis H37Rv infected in Swiss mouse assessed as mean survival time at 100 mg/kg, po for 28 days (reference value: 27.8 days). In kind it is functional.

In brackets after ≈: the same amount, converted by molar mass. Activity calls are given as the source filed them. No cut-off for these calls is given here.

Take `COc1nc2ccc(Br)cc2cc1[C@H](c1ccccc1)[C@@]1(O)c2ccccc2CC[C@@H]1CN(C)C` (racemic): in test [1], the MIC90 (in general, the lowest concentration that inhibits either 90% of growth or 90% of the strains tested, depending on the study) is over 50 µM.
As to `C=CCOc1nc2ccccc2cc1C(c1cc2ccccc2nc1OCC=C)C(O)(CCN(C)C)c1ccccc1` (stereo unspecified), in test [2], the MIC (usually the lowest concentration found to suppress growth) is over 50 µM. Also, 40 nM corresponded to half-maximal inhibition on ATP synthase (IC50).
For `COc1nc2ccc(Br)cc2cc1[C@H](c1ccccc1)[C@@]1(O)c2ccc(Br)cc2C[C@@H]1CN(C)C` (racemic), the MIC90 in [1] was over 50 µM.
Take `COc1nc2ccccc2cc1C(c1cc2ccccc2nc1OC)C(O)(CCN(C)C)c1cccc2ccccc12` (stereo unspecified): in [2], the minimal inhibitory concentration (MIC) amounted to 0.7 µM (≈ 0.39 µg/mL). Also, the figures for the IC50 (against ATP synthase; in test [3]; in [4]) were 1 nM, over 100000 nM and over 100000 nM, respectively.
Regarding `NNC(=O)c1ccncc1` [ISONIAZID], the Activity in [5] stood at 98%. For the same molecule, the “fold change (FC)” value in test [6] is on record as 257.08. Further, the MST in test [7] worked out at 29 days.
With `COc1nc2ccccc2cc1C(c1cc2ccccc2nc1OC)C(O)(CCN(C)C)c1ccccc1` (stereo unspecified), the MIC in [2] was determined as 0.39 µM (≈ 0.198 µg/mL). Moreover, the IC50 (in general, the point on the concentration scale where inhibition reaches its midpoint) was 70 nM against ATP synthase, over 100000 nM in [3] and over 100000 nM in test [4]. For the same molecule, the Activity in [5] was 90%. The result in test [8] was Active. Moreover, the “fold change (FC)” value in [9] worked out at 118; in test [10], 808.22. Besides, the figures for the MST in test [11] and in test [12] were 29 days and 25 days, respectively.
Turning to `COc1nc2ccccc2cc1C(c1cc2ccccc2nc1OC)C(O)(CCN(C)C)c1ccc2ccccc2c1` (stereo unspecified), the minimal inhibitory concentration (MIC) in [2] is 0.39 µM (≈ 0.218 µg/mL). In addition, the results for the half-inhibitory concentration (IC50) (at ATP synthase; in test [3]; in test [4]) were 30 nM, over 100000 nM and over 100000 nM, respectively. Also, in [5], the Activity was 91%. In addition, the outcome in [8] was Active.
As to `COc1nc2ccc(Br)cc2cc1[C@H](c1ccccc1)[C@@]1(O)c2cc(C)ccc2C[C@@H]1CN(C)C` (racemic), in [1], the MIC90 worked out at 12.5 µM (≈ 6.64 µg/mL).
Still for that read-out and setting: as for `COc1nc2ccc(Br)cc2cc1[C@@H](c1ccccc1)[C@@]1(O)c2ccccc2OC[C@@H]1CN(C)C` (racemic), the figure is over 50 µM; as for `COc1nc2ccc(Br)cc2cc1[C@H](c1ccccc1)[C@@]1(O)c2cc(Br)ccc2CC[C@@H]1CN(C)C` (racemic), over 50 µM; as for `COc1nc2ccc(Br)cc2cc1[C@@H](c1ccccc1)[C@@]1(O)c2ccccc2CCC[C@@H]1CN(C)C` (racemic), 45.8 µM (≈ 25 µg/mL).
Same read-out and setting: next, `COc1nc2ccc(Br)cc2cc1[C@@H](c1ccccc1)[C@@]1(O)c2ccc(Br)cc2C[C@@H]1CN(C)C` (racemic): over 50 µM; `COc1nc2ccc(Br)cc2cc1[C@H](c1ccccc1)[C@@]1(O)c2cc(Cl)ccc2OCC[C@@H]1CN(C)C` (racemic): over 50 µM.
With `CO[C@H]1/C=C/O[C@@]2(C)Oc3c(C)c(O)c4c(O)c(c(/C=N/N5CCN(C)CC5)c(O)c4c3C2=O)NC(=O)/C(C)=C\C=C\[C@H](C)[C@H](O)[C@@H](C)[C@@H](O)[C@@H](C)[C@H](OC(C)=O)[C@@H]1C` [RIFAMPIN], in test [5], the Activity is on record as 98%.
`COc1nc2ccc(Br)cc2cc1[C@@H](c1ccccc1)[C@@]1(O)c2cc(Cl)ccc2OCC[C@@H]1CN(C)C` (racemic): in test [1], the MIC90 was over 50 µM.
For `COc1nc2ccc(Br)cc2cc1[C@@H](c1ccccc1)[C@@]1(O)c2cc(Br)ccc2CC[C@@H]1CN(C)C` (racemic), the MIC90 in [1] was over 50 µM.
Still for that read-out and setting: as for `COc1nc2ccc(Br)cc2cc1[C@H](c1ccccc1)[C@@]1(O)c2ccccc2OC[C@@H]1CN(C)C` (racemic), the figure is over 50 µM.
Regarding `CC[C@@H](CO)NCCN[C@@H](CC)CO` [ETHAMBUTOL], the “fold change (FC)” value in [13] is on record as 26.94. In addition, the MST in test [14] is 29 days.
Molecule `CN(C)CCC(O)(c1cccc(Br)c1)C1c2cc3ccccc3nc2OCC/C=C\CCOc2nc3ccccc3cc21` (stereo unspecified) showed a 50% inhibitory concentration (IC50) against ATP synthase of 10 nM.
For `COc1nc2ccc(Br)cc2cc1[C@@H](c1ccccc1)[C@@]1(O)c2cc(C)ccc2C[C@@H]1CN(C)C` (racemic), the MIC90 in [1] was over 50 µM.
Consider `C=CCOc1nc2ccccc2cc1C(c1cc2ccccc2nc1OCC=C)C(O)(CCN(C)C)c1cccc(Br)c1` (stereo unspecified), for which the MIC in test [2] is over 50 µM. In addition, the IC50 at ATP synthase came to 30 nM.
Consider `COc1nc2ccccc2cc1C(c1cc2ccccc2nc1OC)C(O)(CCN(C)C)c1cccc(Br)c1` (stereo unspecified), for which the minimum inhibitory concentration (MIC) in test [2] was found to be 1.56 µM (≈ 0.915 µg/mL). The figures for the 50% inhibitory concentration (IC50) (at ATP synthase; in test [3]; in test [4]) were 50 nM, over 100000 nM and over 100000 nM, respectively.
With `COc1nc2ccc(Br)cc2cc1[C@@H](c1ccccc1)[C@@]1(O)c2ccccc2CC[C@@H]1CN(C)C` (racemic), in [1], the MIC90 was over 50 µM.
As for `C=CCCOc1nc2ccccc2cc1C(c1cc2ccccc2nc1OCCC=C)C(O)(CCN(C)C)c1ccc(Br)cc1` (stereo unspecified), the minimal inhibitory concentration (MIC) in test [2] came out at 1.56 µM (≈ 1.04 µg/mL). Further, the IC50 was 80 nM on ATP synthase, over 100000 nM in [3] and over 100000 nM in test [4].
With `C=CCOc1nc2ccccc2cc1C(c1cc2ccccc2nc1OCC=C)C(O)(CCN(C)C)c1ccc(Br)cc1` (stereo unspecified), the minimum inhibitory concentration (MIC) in test [2] is over 50 µM. Also, at ATP synthase, the IC50 is 280 nM.
Take `COc1nc2ccccc2cc1C(c1cc2ccccc2nc1OC)C(O)(CCN(C)C)c1ccc(Br)cc1` (stereo unspecified): the MIC in [2] amounted to 0.66 µM (≈ 0.387 µg/mL). The IC50 is 10 nM against ATP synthase, over 100000 nM in test [3] and over 100000 nM in [4].
`COc1nc2ccc(Br)cc2cc1[C@H](c1ccccc1)[C@@]1(O)c2ccccc2C[C@@H]1CN(C)C` (racemic): in test [1], the MIC90 stood at 12.1 µM (≈ 6.26 µg/mL).
Still for that read-out and setting: next, `COc1nc2ccc(Br)cc2cc1[C@@H](c1ccccc1)[C@@]1(O)c2ccccc2C[C@@H]1CN(C)C` (racemic): 48.3 µM (≈ 25 µg/mL).
For `COc1nc2ccc(Br)cc2cc1[C@@H](c1ccccc1)[C@@]1(O)c2ccccc2OCC[C@@H]1CN(C)C` (racemic), in test [1], the MIC90 was determined as 22.8 µM (≈ 12.5 µg/mL).
